Test systems include OVCAR-4; SR; U-251; TK-10; Hs-578T; HT-29; CAKI-1; UACC-257; A549; EKVX; LOX IMVI; MOLT-4; T47D; NCI/ADR-RES; HCT-15; SNB-19; OVCAR-5; K562; NCI-H522.
Common to all, as to experiment: NCI anticancer screen, dose series, 48 h

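Briefly, cells in 96-well plates were exposed to five compound concentrations for 48 h, and endpoints were estimated by linear interpolation. The concentration for 50% growth inhibition is given as GI50.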 The source made the active and inactive calls. Cut-off read from the data, not from the text of the source: active = GI50 up to about 1.1 µM and inactive = higher. Where only a bound is given, the exact number is not on record here.

Take `CCOC(=O)/C(C(=O)c1ccc[nH]1)=C1/CCCN1C`: the GI50 in the assay with OVCAR-4, with SR, with U-251, with TK-10, with Hs-578T and in the assay on HT-29 was > 100 µM (inactive) throughout. In addition, the GI50 is > 100 µM (inactive) with CAKI-1; > 100 µM (inactive) in the assay with UACC-257; > 100 µM (inactive) with A549; > 100 µM (inactive) in the assay on EKVX; > 100 µM (inactive) with LOX IMVI; 49.5 µM (inactive) in the assay with MOLT-4. In addition, the GI50 was > 100 µM (inactive) in the assay on T47D; > 100 µM (inactive) with NCI/ADR-RES; greater than 100 µM in the assay with HCT-15; > 100 µM (inactive) with SNB-19; > 100 µM (inactive) in the assay on OVCAR-5; > 100 µM (inactive) in the assay on K562.
`Nc1nnc2n1C(=O)C(C1(C3=Nc4nnc(N)n4C3=O)Cc3ccccc3C1=O)=N2`: the GI50 is 76.6 µM (inactive) in the assay on SR; > 100 µM (inactive) with TK-10; > 100 µM (inactive) in the assay with Hs-578T; > 100 µM (inactive) in the assay with HT-29; > 100 µM (inactive) in the assay with CAKI-1; > 100 µM (inactive) with UACC-257. Further, the GI50 in the assay on A549 is 43.5 µM (inactive); in the assay with EKVX, > 100 µM (inactive); with LOX IMVI it was 87.5 µM (inactive); in the assay with MOLT-4 it was > 100 µM (inactive); in the assay with T47D, 64.9 µM (inactive); in the assay with NCI/ADR-RES, > 100 µM (inactive). Moreover, the GI50 is greater than 100 µM in the assay with HCT-15, > 100 µM (inactive) in the assay with SNB-19, > 100 µM (inactive) with OVCAR-5 and 94 µM (inactive) in the assay with K562.
As for `COc1cc(O)c2c(=O)c3cccc(C)c3[nH]c2c1`, the GI50 in the assay with OVCAR-4 is 6.4 µM (inactive); with U-251 it was > 10 µM (inactive); with TK-10, > 10 µM (inactive); in the assay with Hs-578T it was > 10 µM (inactive); with HT-29 it was > 10 µM (inactive); in the assay with CAKI-1 it was > 10 µM (inactive). The GI50 with UACC-257 is > 10 µM (inactive); in the assay on A549, > 10 µM (inactive); in the assay with EKVX it was > 10 µM (inactive); in the assay with LOX IMVI, 8.75 µM (inactive); with MOLT-4, 3.99 µM (inactive); with T47D, > 10 µM (inactive). Moreover, the GI50 was > 10 µM (inactive) in the assay on NCI/ADR-RES; greater than 10 µM in the assay on HCT-15; > 10 µM (inactive) with SNB-19; > 10 µM (inactive) in the assay on OVCAR-5; > 10 µM (inactive) in the assay on NCI-H522; > 10 µM (inactive) in the assay with K562.
Consider `Cc1ccsc1/C=N/Nc1cc(C)c2ccccc2n1`, for which the GI50 in the assay on OVCAR-4 was 14.6 µM (inactive); with U-251, 14 µM (inactive); with TK-10, 14.7 µM (inactive); with Hs-578T, 16.7 µM (inactive); in the assay on HT-29, 3.61 µM (inactive); with CAKI-1 it was 16.6 µM (inactive). Moreover, the GI50 in the assay on UACC-257 was 6.78 µM (inactive); in the assay on A549, 9.55 µM (inactive); in the assay on EKVX, 6.82 µM (inactive); in the assay with LOX IMVI, 12 µM (inactive); with MOLT-4, 9.23 µM (inactive); with T47D, 17.8 µM (inactive). In addition, the GI50 with NCI/ADR-RES was 13.9 µM (inactive); in the assay with HCT-15, 11.4 µM; in the assay with SNB-19, 16.6 µM (inactive); in the assay on OVCAR-5, 24.3 µM (inactive); in the assay on K562, 9.06 µM (inactive).
As for `Cc1ccc(S(=O)(=O)NC(=O)NC(CC(=O)O)C(=O)O)cc1` (configuration not stated), the GI50 with OVCAR-4, in the assay on SR, with U-251, in the assay on TK-10, with Hs-578T and in the assay with HT-29 was > 100 µM (inactive) in each case. The GI50 in the assay on UACC-257, in the assay on A549, in the assay with LOX IMVI, in the assay on MOLT-4, with T47D and with NCI/ADR-RES was > 100 µM (inactive) in each case. For the same molecule, the GI50 with HCT-15 was greater than 100 µM; with SNB-19, > 100 µM (inactive); in the assay with OVCAR-5 it was > 100 µM (inactive); in the assay on NCI-H522, > 100 µM (inactive); in the assay with K562, > 100 µM (inactive).
In the case of `CC(C)(C)C1=C(Br)C(C(C)(C)C)OP1(=O)O` (configuration not stated), the GI50 in the assay with OVCAR-4, in the assay with U-251, with TK-10, with Hs-578T, in the assay on HT-29 and in the assay with CAKI-1 was > 100 µM (inactive) each time. Moreover, the GI50 in the assay on UACC-257, in the assay on A549, with EKVX, with LOX IMVI, in the assay with T47D and in the assay with NCI/ADR-RES was > 100 µM (inactive) throughout. Also, the GI50 in the assay on HCT-15 is greater than 100 µM; with SNB-19 it was > 100 µM (inactive); in the assay on OVCAR-5, > 100 µM (inactive); with NCI-H522 it was > 100 µM (inactive); in the assay with K562, > 100 µM (inactive).
In the case of `c1ccc2c(c1)[C@@H]1O[C@@H]1[C@@]13O[C@@]21[C@H]1O[C@H]1c1ccccc13`, the GI50 with OVCAR-4 was 11.9 µM (inactive); in the assay with U-251, 12.3 µM (inactive); in the assay with TK-10 it was 18.1 µM (inactive); in the assay with Hs-578T, 13 µM (inactive); with HT-29, 20.2 µM (inactive); in the assay on CAKI-1 it was 10.8 µM (inactive). The GI50 in the assay on UACC-257 was 17.6 µM (inactive); in the assay on A549, 15.7 µM (inactive); with EKVX, 17 µM (inactive); in the assay with LOX IMVI, 10.2 µM (inactive); with MOLT-4, 10.6 µM (inactive); in the assay on T47D it was 17.8 µM (inactive). For the same molecule, the GI50 in the assay with NCI/ADR-RES was 16.3 µM (inactive); with HCT-15, 19.5 µM; in the assay on SNB-19, 16.1 µM (inactive); with OVCAR-5, 17.1 µM (inactive); in the assay on NCI-H522, 10.8 µM (inactive); in the assay with K562, 13.6 µM (inactive).
Take `O=C(CC(C(=O)O)N1CCOCC1)c1ccccc1` (configuration not stated): the GI50 in the assay with OVCAR-4 was 23 µM (inactive); with SR it was 16.4 µM (inactive); in the assay with U-251, 16.7 µM (inactive); in the assay on TK-10, 15.9 µM (inactive); in the assay with Hs-578T, 34.1 µM (inactive); with HT-29, 17.1 µM (inactive). For the same molecule, the GI50 with UACC-257 is 13.4 µM (inactive); in the assay with A549 it was 57.8 µM (inactive); in the assay with EKVX it was 18.4 µM (inactive); with LOX IMVI it was 17.5 µM (inactive); with MOLT-4, 15.2 µM (inactive); in the assay on T47D it was > 100 µM (inactive). Besides, the GI50 in the assay on NCI/ADR-RES was > 100 µM (inactive); with HCT-15, 19.5 µM; in the assay on SNB-19 it was 21 µM (inactive); in the assay on OVCAR-5, 22.3 µM (inactive); in the assay on NCI-H522, > 100 µM (inactive); in the assay on K562 it was 18.8 µM (inactive).
As to `O=C(NCCCCNCCCNC(=O)c1ccccc1)c1ccccc1`, the GI50 in the assay with OVCAR-4, in the assay on SR, in the assay with U-251, with TK-10, with Hs-578T and in the assay on HT-29 was > 100 µM (inactive) throughout. In addition, the GI50 with UACC-257, in the assay with A549, in the assay on EKVX, in the assay on MOLT-4, in the assay with T47D and in the assay on NCI/ADR-RES was > 100 µM (inactive) throughout. For the same molecule, the GI50 with HCT-15 is greater than 100 µM; with SNB-19, > 100 µM (inactive); with OVCAR-5 it was > 100 µM (inactive); in the assay on NCI-H522, > 100 µM (inactive); in the assay with K562 it was > 100 µM (inactive).
For `O=[N+]([O-])c1cc2c([N+](=O)[O-])cccc2o1`, the GI50 was 1.58 µM (inactive) with OVCAR-4; 18.4 µM (inactive) in the assay with U-251; 9.25 µM (inactive) in the assay with TK-10; 13.1 µM (inactive) in the assay on Hs-578T; 4.09 µM (inactive) with HT-29; 2.22 µM (inactive) in the assay on CAKI-1. The GI50 is 6.93 µM (inactive) in the assay with UACC-257; 30.1 µM (inactive) in the assay with A549; 2.56 µM (inactive) with EKVX; 3.66 µM (inactive) in the assay with LOX IMVI; 6.7 µM (inactive) with T47D; 14.3 µM (inactive) with NCI/ADR-RES. Moreover, the GI50 in the assay on HCT-15 was 4.59 µM; in the assay on SNB-19, 19.2 µM (inactive); in the assay with NCI-H522, 0.479 µM (active).
As to `N#CCc1nc(-c2cc3c(ccc4ccccc43)oc2=O)cs1`, the GI50 in the assay with OVCAR-4 is 24.3 µM (inactive); in the assay with U-251 it was 18.9 µM (inactive); in the assay on TK-10, 18.1 µM (inactive); in the assay with Hs-578T, 20.3 µM (inactive); with HT-29, 73.1 µM (inactive); in the assay on CAKI-1 it was 50.1 µM (inactive). Besides, the GI50 with UACC-257 was 26.9 µM (inactive); with A549, 50 µM (inactive); in the assay with EKVX it was 20.3 µM (inactive); in the assay on LOX IMVI, > 100 µM (inactive); in the assay on MOLT-4, > 100 µM (inactive); in the assay with T47D, 27.8 µM (inactive). For the same molecule, the GI50 in the assay on NCI/ADR-RES was 23 µM (inactive); in the assay on HCT-15 it was 69.3 µM; with SNB-19, 19.1 µM (inactive); with OVCAR-5, > 100 µM (inactive); in the assay on NCI-H522, 13 µM (inactive); with K562, > 100 µM (inactive).
Take `c1ccc(/N=C2\c3ccsc3/C(=N/c3ccccc3)c3ccsc32)cc1`: the GI50 was 1.77 µM (inactive) with OVCAR-4; 1.91 µM (inactive) with U-251; 5.6 µM (inactive) in the assay with TK-10; 2.24 µM (inactive) with Hs-578T; 2.67 µM (inactive) in the assay on HT-29; 4.49 µM (inactive) with CAKI-1. Further, the GI50 was 1.29 µM (inactive) in the assay with UACC-257; 2.03 µM (inactive) in the assay on A549; 2.09 µM (inactive) in the assay on EKVX; 0.458 µM (active) in the assay on LOX IMVI; 1.9 µM (inactive) in the assay on MOLT-4; 1.52 µM (inactive) with T47D. In addition, the GI50 with NCI/ADR-RES is 1.98 µM (inactive); in the assay on HCT-15, 2.04 µM; in the assay on SNB-19, 1.98 µM (inactive); in the assay on OVCAR-5 it was 1.67 µM (inactive); with NCI-H522, 1.98 µM (inactive); in the assay on K562, 1.83 µM (inactive).

The values above are taken from ChEMBL document CHEMBL1201862, “PubChem BioAssay data set” (2004).
